US9212205B2, “Nucleic acid binding compounds and methods of use” (University of Rochester, priority 2007, dated 2015)

Assays:
[1] = target: HIV-1 frameshift regulatory RNA sequence (Seq I, SEQ ID NO:1); assay: SPR binding of immobilized dimers to RNA; conditions: read-out: dissociation constant (Kd), affinity to the HIV-1 frameshift regulatory RNA sequence
Description: Graphical analysis of Surface Plasmon Resonance (SPR) data was carried out using DeltaGraph (Rockware Inc.). SPR analysis was conducted on a Reichert SR7000 refractometer using Reichert gold sensor slides that consist of a mixed self-assembled monolayer of thiol-PEG-alcohols and thio-PEG-carboxylic acids (˜9:1; PEG=polyethylene glycol). Amine functionalized small molecules were attached by […]/EDC coupling to the carboxy termini of the surface. After activating the monolayer, molecules were covalently attached through the addition of a 1 mg/mL solution of molecule in a sodium acetate buffer (20 mM, pH=5.5). Unreacted activated esters were quenched through the addition of ethanolamine. […]
To confirm this hypothesis, dissociation constants (Kd) were measured for dimers 1-1 and 1-3 by SPR (FIG. 7A) (Whitney et al., “Templated Ligand Assembly by Using G-quadruplex DNA and Dynamic Covalent Chemistry,” Angew. Chem. Int. Ed. 43:1143-1146 (2004); Lacy et al., “Influence of a Terminal Formamido Group on the Sequence Recognition of DNA by Polyamides,” J. Am. Chem. Soc. 124:2153-2163 (2002); Carrasco et al., “DNA Sequence Recognition by the Indolocarbazole Antitumor Antibiotic AT2433-B1 and Its Diastereoisomer,” Nucleic Acids Res. 30:1774-1781 (2002), each of which is hereby incorporated by reference in its entirety).

[2] = target: (CUG) repeat RNA SEQ ID NO:7; assay: Filter binding assay (FBA), SEQ ID NO:7; conditions: negative control; method (FBA or FT) not stated; read-out: KD for CUG repeat RNA (SEQ ID NO:7)
Description: A filter binding assay system was utilized to provide a rapid initial assessment of binding affinity. All binding studies were performed in PBS pH 7.2+1 mM MgCl2 at 22° C. Various concentrations of small molecules were incubated with 10 nM FAM-labeled RNA in a total volume of 50 μl for 20 minutes. A slot blot apparatus was then assembled with a wet nitrocellulose filter, on top of a wet nylon filter, on top of filter paper. 40 μl of each binding mixture was then loaded into an individual well of the apparatus and allowed to penetrate the filters for 10 minutes. The peptidic disulfides selected from the DCL efficiently bind to the nitrocellulose filter. In contrast, the FAM-labeled RNA strands penetrate the nitrocellulose filter and are bound by the nylon filter. As such, RNA bound by the peptidic library members remains bound on the nitrocellulose filter, and unbound RNA passes to the nylon filter.
Densitometric analysis of the ratio of labeled RNA on the nitrocellulose to nylon filters allows quantification of binding (FIG. 15A). All binding isotherms were fit to the logistic binding model (Equation 1 above). The repetitive nature of the target sequences may in some cases result in binding stoichiometries that are more complex than a simple 1:1 interaction.
To test specificity and to confirm the determined binding affinities, filter binding assays and fluorescence titrations were performed with SEQ ID NOS: 7-11 (Table 5), and the HIV-1 frameshift stimulating RNA hairpin used in preceding Examples (SEQ ID NO:1, Table 5). Fluorescence titrations were performed using a Varian Cary Eclipse spectrophotometer. 2 μl of 50 or 500 μM small molecule were titrated into 400 μl of FAM labeled RNA sequences an allowed to equilibrate for at least 10 minutes, or until no change in fluorescence spectra was observed. Changes in fluorescence emission at 518 nm (excitation at 490 nm) were measured. Raw data were corrected for dilution dependant changes, and Em518 was plotted against small molecule concentration and fit to the one site binding equation y=(bmaz*x)/(KD+x).) Competition experiments utilizing target RNA (SEQ ID NO:7) and a 20-fold molar excess of total yeast tRNA were performed to measure non-specific RNA binding (Luedtke et al., “RNA-Ligand Interactions: Affinity and Specificity of Aminoglycoside Dimers and Acridine Conjugates to the HIV-1 Rev Response Element,” Biochemistry 42:11391-11403 (2003), which is hereby incorporated by reference in its entirety). Compound 1-1, the HIV-1 RNA ligand, served as a negative control.

[3] = target: (CUG)109 RNA (SEQ ID NO:8)-MBNL1 protein interaction; assay: Enzyme Fragmentation Complementation (EFC) assay of (CUG)109-MBNL1 binding inhibition; type: biochemical
Description: Small molecule-mediated inhibition of (CUG)109-MBNL1 binding was determined using an Enzyme Fragmentation Complementation (EFC) assay (Eglen et al., “β-Galactosidase Enzyme Fragment Complementation as A Novel Technology for High Throughput Screening,” Comb. Chem. High Throughput Screening 6:381-387 (2003), which is hereby incorporated by reference in its entirety). Briefly, this was performed by first immobilizing (CUG)109 RNA (SEQ ID NO:8) to a 96 well plate. Next, the immobilized RNA was incubated with recombinant MBNL1 fused to the PL enzyme donor peptide (PL-MBNL1, where “PL” is the commercial “ProLabel” enzyme donor peptide) (DiscoveRx PathHunter ProLabel Detection kit) in the presence of varying concentrations of small molecule inhibitor. The Enzyme Acceptor (EA-β-galactosidase) complement was then added, and the activity of the resulting plate—(CUG)109 bound (PL-MBNL1)-(EA-β-galactosidase) activity was monitored via a chemiluminsecent substrate. Only the EA-β-Gal bound to the PL-MBNL1 is capable of performing the luminescent reaction and, as such, any luminescence correlates to the amount of MBNL1 bound to the (CUG)109 immobilized on the plate. Wells lacking (CUG)109 RNA served as a background measure of non-specific luminescence and were subtracted from each experiment to yield a 0% bound value. Wells containing no small molecule inhibitor added served as 100% bound. […]

CCc1nc2ccccc2cc1C(=O)N[C@@H](CSSC[C@H](NC(=O)c1cc2ccccc2nc1CC)C(=O)N1CCC[C@H]1C(=O)N[C@@H](Cc1ccccc1)C(=O)NCCCN)C(=O)N1CCC[C@H]1C(=O)N[C@@H](Cc1ccccc1)C(=O)NCCCN [dimer 1-1]
Kd [1]: 1900 nM
Kd [2]: > 40000 nM
Ki, inhibition of the (CUG)n MBNL1 interaction [3]: do not show any inhibitory effect
